Read-outs that look alike come from different tables or passages of the source.
Experiments:
[1] = system: Myotonic Dystrophy 1 affected patient fibroblasts (Coriel GM04602; 1600 CTG repeats); assay: DM1 foci reduction assay (EC50 assay; CAG10-Cy3 FISH, foci per nucleus); assay type: cell-based
In short: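 GM04602 DM1 patient fibroblasts (1600 CTG repeats) seeded 24 h, then treated 48 h at 37 °C with an 8-point 1:3 dose series from 3 μM. Cells PFA-fixed, ethanol-permeabilized and hybridized overnight with 5 nM CAG10-Cy3 probe, DAPI counterstained. Imaged at 20×, 4 fields per well, as average foci per nucleus.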

F35T cells = assay: Foci reduction in FECD (CAG10-Cy3 FISH, foci per nucleus); assay type: cell-based
Procedure: F35T cells were cultured in media containing Opti-MEM (ThermoFisher) supplemented with 8% FBS, 20 μg/mL ascorbic acid, […] CaCl2, 0.08% chondroitin sulfate, 1×Pen/Strep, 100 μg/mL bovine pituitary extract, 5 ng/mL epidermal growth factor, and 20 ng/mL nerve growth factor. Throughout the culture, cells were maintained in an incubator at 37° C. and 5% CO2. Media was refreshed every 48 hours. Once cells reached adequate confluency, they were harvested and seeded in 96 well plates with a density of 5000 cells per well in 200 μL of the supplemented Opti-MEM media. Cells were returned to the incubator and left to settle for 24 hours at 37° C. and 5% CO2. Cells were then treated in 8-point dose response with compounds or negative controls and incubated for 48 hours at 37° C. and 5% CO2. After treatment, cells were fixed with 4% PFA for 20 minutes at room temperature, followed by permeabilization with 70% ethanol. Cells were incubated at −20° C. for a minimum of 1 hour and maximum of 72 hours, after which the ethanol was removed, and cells were washed with PBS. Cells were rehydrated with 30% formamide and 2×SSC buffer for 10 minutes at room temperature. Cells were then incubated overnight at 37° C. in the hybridization solution containing 30% formamide, 2×SSC, 55 mg/mL dextran sulfate, 2.75 mg/mL bovine serum albumin, 0.2 μg/mL Herring sperm DNA, 1% vanadyl-ribonucleoside complex, and 0.05% 10 μM CAG10-Cy3 probe. Cells were washed twice with 30% formamide in 2×SSC, incubating the cells while shaking with the second wash at 37° C. and 200 rpm for 60 minutes. Cells were stained with 5 mg/mL DAPI 1:1000 in PBS, incubating at room temperature for 5 minutes. Cells were then washed with PBS and sealed with adhesive foil, with each well containing a final volume of 150 μL PBS. Cells were imaged on a Cytation 5 and analyzed on a foci per nucleus basis.

[2] = Homo sapiens, Fibroblast; DM1 patient fibroblasts, 48 h treatment, foci per nucleus; read-out: DM1 EC50, 48 h
[3] = F35T cells, 48 h treatment, foci per nucleus; read-out: FECD EC50, 48 h
[4] = Homo sapiens, Fibroblast; DM1 patient fibroblasts, foci per nucleus, 48 h treatment; read-out: DM1 EC50, 48 h
[5] = F35T cells, foci per nucleus, 48 h treatment; read-out: FECD EC50, 48 h

`Cn1cc(NC(=O)c2nc(NC(=O)CCNC(=O)c3cc(NC(=O)c4nccn4C)cn3C)cn2C)cc1C(=O)NCCCC(=O)Nc1cn(C)c(C(=O)NCCC(=O)Nc2cc(C(=O)Nc3cn(C)c(C(=O)NCCC(=O)OCC(N)(CO)CO)n3)n(C)c2)n1` [Compound B-73] gave an EC50 [1, 2] of 500 to 1000 nM and an EC50 (F35T cells; [3]) of over 1000 nM.

With `CN(CCCC#Cc1cccc(C(=O)O)c1)CCCNC(=O)c1nc(NC(=O)c2cc(NC(=O)CCNC(=O)c3nc(NC(=O)CCCNC(=O)c4cc(NC(=O)c5nc(NC(=O)CCNC(=O)c6cc(NC(=O)c7nccn7C)cn6C)cn5C)cn4C)cn3C)cn2C)cn1C` [Compound B-263] the EC50 [1, 2] was 100 to 500 nM and the EC50 (F35T cells; [3]) was under 100 nM.

With `CC(=O)N1CCC(C#CC#CC2CCN(CCOCCOCCOCCNC(=O)CCNC(=O)c3nc(NC(=O)c4cc(NC(=O)CCNC(=O)c5nc(NC(=O)CCCNC(=O)c6cc(NC(=O)c7nc(NC(=O)CCNC(=O)c8cc(NC(=O)c9nccn9C)cn8C)cn7C)cn6C)cn5C)cn4C)cn3C)CC2)CC1` [Compound B-121] the EC50 [1, 2] was 100 to 500 nM and the EC50 (F35T cells; [3]) was 100 to 500 nM.

`Cn1cc(NC(=O)c2nc(NC(=O)CCNC(=O)c3cc(NC(=O)c4nccn4C)cn3C)cn2C)cc1C(=O)NCCCC(=O)Nc1cn(C)c(C(=O)NCCC(=O)Nc2cc(C(=O)Nc3cn(C)c(C(=O)NCCC(=O)NCCOCCOCCOCCOCCOc4ccc(N)cc4)n3)n(C)c2)n1` [Compound B-12] showed an EC50 [1, 2] of 100 to 500 nM and an EC50 (F35T cells; [3]) of 100 to 500 nM.

With `CC(Nc1cc(C(=O)NCCC(=O)Nc2cn(C)c(C(=O)Nc3cc(C(=O)NCCCC(=O)Nc4cn(C)c(C(=O)NCCC(=O)Nc5cc(C(=O)Nc6cn(C)c(C(=O)NCCC(=O)NCCOCCOCCOCCOCCOCCOCCOCCOCCOCCOCCN)n6)n(C)c5)n4)n(C)c3)n2)n(C)c1)c1nccn1C` (centres unmarked) [Compound B-81] the EC50 [1, 2] was over 1000 nM and the EC50 (F35T cells; [3]) was over 1000 nM.

`CCCNC(=O)CCNC(=O)c1nc(NC(=O)c2cc(NC(=O)CCNC(=O)c3nc(NC(=O)CCCNC(=O)c4cc(NC(=O)c5nc(NC(=O)CCNC(=O)c6cc(NC(=O)c7nccn7C)cn6C)cn5C)cn4C)cn3C)c[nH]2)cn1C` [Compound B-63] gave an EC50 [1, 2] of 100 to 500 nM and an EC50 (F35T cells; [3]) of 100 to 500 nM.

`CC(Nc1cc(C(=O)NCCC(=O)Nc2cn(C)c(C(=O)Nc3cc(C(=O)NCCCC(=O)Nc4cn(C)c(C(=O)Nc5cc(C(=O)NCCC(=O)Nc6cn(C)c(C(=O)NCCC(=O)NCCOCCOCCOCCOCCOCCNC(=O)[C@H](CO)NC(=O)OC(C)(C)C)n6)n(C)c5)n4)n(C)c3)n2)n(C)c1)c1nccn1C` (some centres unmarked) [Compound B-110] showed an EC50 [1, 2] of 500 to 1000 nM and an EC50 (F35T cells; [3]) of 100 to 500 nM.

With `CN(CCCNC(=O)c1cccc(C(=O)O)c1)CCCNC(=O)c1cc(NC(=O)CCNC(=O)c2nc(NC(=O)CCCNC(=O)c3cc(NC(=O)c4nc(NC(=O)CCNC(=O)c5cc(NC(=O)c6nccn6C)cn5C)cn4C)cn3CCCCCCN=[N+]=[N-])cn2C)cn1C` [Compound B-253] the EC50 [1, 2] was over 1000 nM and the EC50 (F35T cells; [3]) was over 1000 nM.

`CCCNC(=O)CCNC(=O)c1nc(NC(=O)c2cc(NC(=O)CCNC(=O)c3nc(NC(=O)CCCNC(=O)c4cc(NC(=O)c5nc(NC(=O)CCNC(=O)c6cc(NC(=O)c7nc(N=C(N(C)C)N(C)C)cn7C)cn6C)cn5C)cn4C)cn3C)cn2C)cn1C` [Compound B-326] was tested, and the EC50 [1, 2] was 100 to 500 nM and the EC50 (F35T cells; [3]) was over 1000 nM.

`CCCNC(=O)CCNC(=O)c1nc(NC(=O)c2cc(NC(=O)CCNC(=O)c3nc(NC(=O)CCCNC(=O)c4cc(NC(=O)c5nc(NC(=O)CCNC(=O)c6cc(NC(=O)c7nccn7C)cn6C)cn5C)cn4CCCCCN(CCOCCOCCOCCOC)CCOCCOCCOCCOC)cn3C)cn2C)cn1C` [Compound B-161] showed an EC50 [1, 2] of 500 to 1000 nM and an EC50 (F35T cells; [3]) of 100 to 500 nM.

`CC(=O)NCCCCn1cc(NC(=O)c2nc(NC(=O)CCNC(=O)c3cc(NC(=O)c4nccn4C)cn3C)cn2C)cc1C(=O)NCCCC(=O)Nc1cn(C)c(C(=O)NCCC(=O)Nc2cc(C(=O)Nc3cn(C)c(C(=O)NCCC(=O)N4CCC(C#CC#CC5CCN(C(C)=O)CC5)CC4)n3)n(C)c2)n1` [Compound B-283] was tested, and the EC50 [1, 2] was 500 to 1000 nM and the EC50 (F35T cells; [3]) was under 100 nM.

Compound `Cn1cc(NC(=O)c2nc(NC(=O)CCNC(=O)c3cc(NC(=O)c4nccn4C)cn3C)cn2C)cc1C(=O)NCCCC(=O)Nc1cn(C)c(C(=O)NCCC(=O)Nc2cc(C(=O)Nc3cn(C)c(C(=O)NCCC(=O)NC(CO)CO)n3)n(C)c2)n1` [Compound B-333] has an EC50 [1, 2] of 500 to 1000 nM and an EC50 (F35T cells; [3]) of 100 to 500 nM.

Work on `Cn1cc(NC(=O)c2nc(NC(=O)CCNC(=O)c3cc(NC(=O)c4nccn4C)cn3C)cn2C)cc1C(=O)NCCCC(=O)Nc1cn(C)c(C(=O)NCCC(=O)Nc2cc(C(=O)Nc3cn(C)c(C(=O)NCCCN(CC#Cc4cccc(C(=O)O)c4)CCCN)n3)n(C)c2)n1` [Compound B-383] yielded an EC50 [1, 2] of over 1000 nM and an EC50 (F35T cells; [3]) of under 100 nM.

`CCN(CC)CCCC[C@H](NC(=O)c1cccnc1)C(=O)NCCOCCOCCOCCOCCOCCNC(=O)CCNC(=O)c1nc(NC(=O)c2cc(NC(=O)CCNC(=O)c3nc(NC(=O)CCCNC(=O)c4cc(NC(=O)c5nc(NC(=O)CCNC(=O)c6cc(NC(=O)c7nccn7C)cn6C)cn5C)cn4C)cn3C)cn2C)cn1C` [Compound B-94] gave an EC50 [1, 2] of 500 to 1000 nM and an EC50 (F35T cells; [3]) of 100 to 500 nM.

In the case of `Cn1cc(NC(=O)c2nc(NC(=O)CCNC(=O)c3cc(NC(=O)c4nccn4C)cn3C)cn2C)cc1C(=O)NCCCC(=O)Nc1cn(C)c(C(=O)NCCC(=O)Nc2cc(C(=O)Nc3cn(C)c(C(=O)NCCC(=O)NC(C)(C)C)n3)n(C)c2)n1` [Compound B-47], the EC50 [1, 2] is reported as 100 to 500 nM and the EC50 (F35T cells; [3]) is reported as 100 to 500 nM.

`COC(=O)CCCN(CCCC(=O)OC)Cc1ncc(C2CN(C(=O)CCNC(=O)c3nc(NC(=O)c4cc(NC(=O)CCNC(=O)c5nc(NC(=O)CCCNC(=O)c6cc(NC(=O)c7nc(NC(=O)CCNC(=O)c8cc(NC(=O)c9nccn9C)cn8C)cn7C)cn6C)cn5C)cn4C)cn3C)C2)[nH]1` [Compound B-369] showed an EC50 [1, 2] of over 1000 nM and an EC50 (F35T cells; [3]) of 100 to 500 nM.

With `CC(C)CCCN1CCC(C#CC#CC2CCN(CCOCCOCCOCCNC(=O)CCNC(=O)c3nc(NC(=O)c4cc(NC(=O)CCNC(=O)c5nc(NC(=O)CCCNC(=O)c6cc(NC(=O)c7nc(NC(=O)CCNC(=O)c8cc(NC(=O)c9nccn9C)cn8C)cn7C)cn6C)cn5C)cn4C)cn3C)CC2)CC1` [Compound B-170] the EC50 [1, 2] was 100 to 500 nM and the EC50 (F35T cells; [3]) was 100 to 500 nM.

`CN(C)CCCCNC(=O)c1nc(NC(=O)c2cc(NC(=O)CCNC(=O)c3nc(NC(=O)[C@H](N)CCNC(=O)c4cc(NC(=O)c5nc(NC(=O)CCNC(=O)c6cc(NC(=O)c7nccn7C)cn6C)cn5C)cn4C)cn3C)cn2C)cn1C` [Compound B-410] showed an EC50 [1, 4] of 500 to 1000 nM and an EC50 (F35T cells; [5]) of over 1000 nM.

Work on `Cn1cc(NC(=O)c2nc(NC(=O)CCNC(=O)c3cc(NC(=O)c4nccn4C)cn3C)cn2C)cc1C(=O)NCCCC(=O)Nc1cn(C)c(C(=O)NCCC(=O)Nc2cc(C(=O)Nc3cn(C)c(C(=O)NCCOCCOCCOCCN4CCC(C#CC#CC5CCNCC5)CC4)n3)n(C)c2)n1` [Compound B-107] yielded an EC50 [1, 2] of 100 to 500 nM and an EC50 (F35T cells; [3]) of 100 to 500 nM.

For `CCCNC(=O)CCNC(=O)c1nc(NC(=O)c2cc(NC(=O)CCNC(=O)c3nc(NC(=O)CCCNC(=O)c4cc(NC(=O)c5nc(NC(=O)CCNC(=O)c6cc(NC(=O)c7nccn7C)cn6C)cn5C)cn4CCCCCNC(=O)c4ccccc4)cn3C)cn2C)cn1C` [Compound B-397], the EC50 [1, 2] was 100 to 500 nM and the EC50 (F35T cells; [3]) was 100 to 500 nM.

In the case of `CCCNC(=O)CCNC(=O)c1nc(NC(=O)c2cc(NC(=O)CCNC(=O)c3nc(NC(=O)C[C@@H](N)CNC(=O)c4cc(NC(=O)c5nc(NC(=O)CCNC(=O)c6cc(NC(=O)c7nccn7C)cn6C)cn5C)cn4C)cn3C)cn2C)cn1C` [Compound B-415], the EC50 [1, 4] is reported as 100 to 500 nM and the EC50 (F35T cells; [5]) is reported as 100 to 500 nM.

`Cn1cc(NC(=O)c2nc(NC(=O)CCNC(=O)c3cc(NC(=O)c4nccn4C)cn3C)cn2C)cc1C(=O)NCCCC(=O)Nc1cn(C)c(C(=O)NCCC(=O)Nc2cc(C(=O)Nc3cn(C)c(C(=O)NCCCN4CCCCC4)n3)n(C)c2)n1` [Compound B-208] showed an EC50 [1, 2] of 100 to 500 nM and an EC50 (F35T cells; [3]) of 100 to 500 nM.

— patent US20250368628A1, “METHODS AND COMPOUNDS FOR MODULATING INHERITED GENETIC DISEASES” (Design Therapeutics, Inc., priority 2022, published 2025)
